Results from patent US9226503B2, “Composition and method for attraction of emerald ash borer Agrilus planipennis fairmaire (coleoptera: buprestidae)” (Her Majesty the Queen in Right of Canada, as represented by …, priority 2011, dated 2016).

What was measured:
[1] = tested on: A. planipennis; experiment: Field trapping 2011 experiment 2: (3Z)-lactone, (3Z)-hexenol and trap height factorial, dark green traps; type: in vivo, Agrilus planipennis; details: 2×2×2 factorial, lactone 3 mg/lure
Experimental: (§1) Two trapping experiments were conducted in green and white ash plantations (F. pennsylvanica Marsch and F. americana L.) located 40-60 km southeast of Sarnia, Ontario in 2011. Trees were 20-30 yr old, 5-8 m tall, 12-18 cm in diameter, and spaced 2-3 m apart within and between rows. Five sites were used in total: four were green ash and the fifth was a white ash plantation. Trees at four of the sites generally appeared healthy with few or no signs of decline and only a few with obvious signs and symptoms of infestation by A. planipennis. At the fifth site, obvious crown decline and signs of infestation were apparent on about one-quarter of trees.
(§2) Green prism sticky traps (0.30 cm×35.00 cm×58.75 cm) (Synergy Semiochemicals Corp., Burnaby, BC) were used in all field trials, deployed using modified umbrella rig spreaders (Zing Products, Westport, Mass.). Traps were spaced 20-25 m apart and lure treatments replicated in randomized complete block designs. Traps were deployed either using ropes tied between two trees or using a single line over a canopy branch, as described further below for each specific experimental objective. Traps were typically checked every 2 wk and A. planipennis were collected, counted, and sexed.
Experiment 2 was a 2×2×2 factorial experiment designed to test the effects of (3Z)-lactone, (3Z)-hexenol, trap height, and their interactions on numbers of A. planipennis captured on sticky, dark green (540-nm wavelength) (Francese et al 2010a) prism traps. Traps were baited with either (3Z)-lactone, (3Z)-hexenol, (3Z)-lactone+(3Z)-hexenol, or neither compound (unbaited control) and all treatments were deployed both below the canopy or in the mid-canopy. Traps placed below the canopy were suspended from ropes tied between two trees so the trap was 1-1.5 m from either tree and the top of the trap was 1.5-2 m above the ground. Traps in the canopy were deployed from a single line looped over a mid-canopy branch such that traps were 1-1.5 m from the main stem and their tops were 6 m above ground. (3Z)-Lactone was loaded onto rubber septa lures at a dosage of 3 mg/lure. Release rates of the (3Z)-lactone and (3Z)-hexenol were 60-70 μg/day and 50-100 mg/day, respectively at 25° C. Traps were in the field from 8 June-5 August, with one block at one site (Nauvoo Ranch), 5 blocks at a second site (LaSalle, the one white ash plantation), and 4 blocks at a third site (Brook Line). The 3 mg (3Z)-lactone lures were estimated to maintain adequate release rates for a minimum of three weeks and thus were replaced after three weeks; (3Z)-hexenol lures were not replaced during the experiment.
Numbers of A. planipennis captured in the trapping experiments were subjected to ANOVA separately for males and females. […]

[2] = tested on: A. planipennis; experiment: Field trapping 2011 experiment 1: dose-response to (3Z)-lactone with (3Z)-hexenol, dark green traps; type: in vivo, Agrilus planipennis; details: in combination with (3Z)-hexenol
Experimental: as §1, §2
The two trapping experiments tested the (3Z)-lactone with and without (3Z)-hexenol, at different dosages and heights within the canopy. Experiment 1 was designed to determine the optimum release rate for attractiveness of (3Z)-lactone to male A. planipennis, in combination with (3Z)-hexenol. Dark green (540-nm wavelength) sticky traps (Francese et al 2010a) were suspended using ropes tied between two trees in the mid-canopy and baited with a (3Z)-hexenol lure at release rate of (50-100 mg/day) (Synergy Semiochemicals, Burnaby, B.C.) plus a rubber septum (Wheaton) loaded with either 0, 0.1 mg, 1.0 mg, 10.0 mg, or 50.0 mg of (3Z)-lactone. Respective release rates of the lactone were estimated as ˜2.4 μg/day; ˜22 μg/day; ˜160 μg/day; and −600 μg/day, based on volatile collections on Super-Q® at 25° C. (Silk et al. 2011). (3Z)-Lactone lures were estimated to last three weeks in the field and were replaced once. Trapping was conducted from 9 June-21 July. Lure treatments were replicated 10 times with eight blocks at one site (Anika Mills) and two blocks at a second site (Nauvoo Ranch). (3Z)-Hexenol lures were not changed during the experiment.
Numbers of A. planipennis captured in the trapping experiments were subjected to ANOVA separately for males and females. In experiment 1, ANOVA was used to test the effect of release rate on captures of females and males. Holm-Sidak comparisons were made between treatments and the control, (3Z)-hexenol alone. In experiment 2, we used the general linear model: mean catch=lactone+GLV+trap height+lactone*trap height+GLV*trap height+lactone*GLV+lactone*GLV*trap height+error, in SAS GLM (SAS Institute 1999-2003). Residuals were tested for homogeneity of variance and normality, and a ln(y+1) transformation was used where necessary. We present the untransformed last squares treatment means and their standard errors, along with statistics (P>F) from ANOVA of transformed data.

SMILES: O=C1C/C=C\CCCCCCCCO1 [(3Z)-lactone, (3Z)-dodecen-12-olide]
- mean capture of males per trap, effect of presence of the lure component [1]: significantly and positively affected
- mean catch of females, effect of the lure component [1]: not
- release rate beyond which captures of males decline ([2]; dark green traps): ca. 160 μg/day
- trap capture of males, effect of (3Z)-lactone release rate ([2]; 0-50.0 mg lures, p=0.035): varied significantly with (3Z)-lactone release rate
- trap capture of females, effect of (3Z)-lactone release rate ([2]; 0-50.0 mg lures, p=0.315): not influenced by (3Z)-lactone release rate
- captures of males compared to (3Z)-hexenol alone, 0.1 mg dose ([2]; 0.1 mg lure, release rate 2.4 μg/day at 25° C., p=0.003): highest
- captures of males compared to (3Z)-hexenol alone, 1.0 mg dose ([2]; 1.0 mg lure, p=0.052): marginal increase in captures of males
